Assay results as given in paper PMC3825844 (Analytical biochemistry, 2013).

Key:
[1] = Solubility observed in TR-FRET assay dilution series; assay type: physicochemical; settings: at 100 μM, TR-FRET assay buffer, […] DMSO
[2] = test system: PXR-SRC (steroid receptor coactivator) tethered protein; settings: read-out: hypothetical Kd, circular dichroism; cited from earlier work
[3] = test system: PXR protein (without SRC); settings: affinity selection-mass spectrometry; cited from earlier work

solubility in assay [1]	Structure (SMILES)	Kd [2]	Kd [3]
incomplete solubility	Clc1ccccc1C(c1ccccc1)(c1ccccc1)n1ccnc1 [Clotrimazole, 1-[(2-chlorophenyl)diphenylmethyl]-1H-imidazole]	0.29 µM	0.33 µM
–	CO[C@H]1/C=C/O[C@@]2(C)Oc3c(C)c(O)c4c(O)c(c(/C=N/N5CCN(C)CC5)c(O)c4c3C2=O)NC(=O)/C(C)=C\C=C\[C@H](C)[C@H](O)[C@@H](C)[C@@H](O)[C@@H](C)[C@H](OC(C)=O)[C@@H]1C [Rifampicin, 3-(4-methylpiperazinyliminomethyl)rifamycin SV]	0.54 µM	[…]
